# Measured values: US10959974B2, “Ingenol compounds and use thereof in anti-HIV latency treatment” (priority 2015, dated 2021)
# Read-outs that look alike come from different tables or passages of the source.
# How the values were obtained:
# [1] = tested on: latent HIV in J-Lat-A10.6 cells; assay: Activation of latent HIV in J-Lat-A10.6 cells, GFP fluorescence / flow cytometry; type: cell-based, human; conditions: 48 h
# Description: (§1) The HIV latent cell model of the present invention comprises: a human T cell 10.6 clone strain carrying a green fluorescent protein gene (J-Lat-A10.6), which is provided by the National Institute of Health Research AIDS Reference Reagent Planning Department, established by Dr. Eric Verdin of the University of California.
# (§2) The cells are small and the spherical cells are cultured in suspension. […]
# (§3) J-Lat-A10.6 or C11 cells were seeded in 96-well plates at 2×10E4 cells per well, and 100 μl of 1640 medium (Gibco) containing 10% FBS (Gibco) was added to each well. After the cells were treated with the compounds in Examples 1-7 for 48 h, the green fluorescence expression of the cells was observed under a fluorescence microscope, the cells were collected for flow cytometry detection, and the proportion of fluorescent cells was analyzed.
# (§4) J-Lat-A10.6 or C11 cells were seeded in 96-well plates at 2×10E4 cells per well, and 100 μl of 1640 medium (Gibco) containing 10% FBS (Gibco) was added to each well. After treatment with different concentrations of compounds (such as the compounds in Examples 1-7) and Prostratin for 48 h, the cells were collected for flow cytometry detection and the proportion of fluorescent cells was analyzed.
# latent HIV in C11 cells = assay: Activation of latent HIV in C11 cells, GFP fluorescence / flow cytometry; type: cell-based; conditions: for EC50: read-out: EC50 of activation of latent HIV-1
# Description: The cells are small and the spherical cells are cultured in suspension. Human T cell Jurkat […] cells are transfected by the retroviral vector carrying the green fluorescent protein gene HIV-R7/E-/GFP and sorted (Jordan A, Bisgrove D, Verdin E. HIV reproducibly establishes a latent infection after acute infection EMBO J 22:1868-1877, 2003); another established HIV latent screening model C11 clone is obtained by the twice of the sorting and activation on HIV lentivirus-infected T cells. (Chinese patent: 200810038851. X).
# as §3, §4
# [2] = tested on: latent HIV in J-Lat-A10.6 or C11 cells; assay: Activation of HIV expression in latent cells, flow cytometry of green fluorescent cells (cell line not given); type: cell-based, human; conditions: treated 48 h
# Description: as §1, §2, §3, §4
# [3] = tested on: resting CD4+ T cells isolated from the peripheral blood of AIDS patients; assay: Activation of latent HIV in peripheral blood resting CD4+ T cells of AIDS patients, real-time PCR of HIV-1 mRNA; type: cell-based, human; conditions: 0.005 μM, 18 h; compared with control and 5 μg/ml PHA treated cells
# Description: The resting CD4+ T cells isolated from the peripheral blood of 5 AIDS patients were treated with 5 μg/ml PHA (phytohemagglutinin) (positive control) and 0.005 μM compound 16A for 18 h, and then HIV-1 mRNA was extracted from resting CD4+ T cells and the medium, real-time PCR was used to detect the change of HIV-1 mRNA expression level in resting CD4+ T cells and medium, respectively.
# [4] = tested on: cells in the known HIV-infected latent reservoir; assay: Treatment of cells of the HIV-infected latent reservoir with compound, then antiretroviral drugs; type: cell-based; conditions: compound treatment followed by antiretroviral drugs, versus untreated viral latent reservoir
SMILES,"proportion of green fluorescent positive cells ([1]; 10 nM, background about 1-2%) [%]","proportion of green fluorescent positive cells (latent HIV in C11 cells; 10 nM, 48 h, C11 cells) [%]","EC50 (latent HIV in C11 cells; C11 cells, 48 h, flow cytometry) [nM]","EC50 ([2]; flow cytometry, J-Lat-A10.6 or C11 cells (not specified for Table 1)) [ng/mL]","activation rate ([2]; proportion of fluorescent cells, J-Lat-A10.6 or C11 cells (not specified), untreated control 2%) [%]",intracellular activated HIV-mRNA [3],number of viral latent reservoir [4],"EC50 ([1]; Homo sapiens, flow cytometry, read-out: EC50 of activation of latent HIV-1) [nM]","EC50 (latent HIV in C11 cells; Human immunodeficiency virus 1, 48 h) [nM]"
"CCCCCCCCCCCC(=O)O[C@@]12C[C@@H](C)[C@]34C=C(C)[C@H](OC(=O)C(C)C(C)C)[C@@]3(O)[C@H](O)C(CO)=C[C@H](C4=O)[C@@H]1C2(C)C (stereo partly drawn) [Example 1, 3-O-(2,3-dimethylbutanoyl)-13-O-dodecanoyl ingenol]",90,~80,3.53,2.6,93,significantly higher,significantly lower,,
"CC(=O)O[C@@]12C[C@@H](C)[C@@]3(O)[C@@H](C=C(CO)C[C@]4(O)C(=O)C(C)=C[C@@H]34)[C@@H]1C2(C)C [Prostratin, reference compound]",,,,,,,,860,760
